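Compound exposure: 48 hours, 5 concentrations, 96-well plates. GI50 marks 50% less growth. TGI denotes the concentration required for complete inhibition of growth.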
What was measured:
Test in all cases: NCI tumour cell line growth inhibition, 48 h
UO-31 renal = tested on: UO-31 renal
SF-539 CNS = tested on: SF-539 CNS
TK-10 renal = tested on: TK-10 renal
SF-268 CNS = tested on: SF-268 CNS
OVCAR-5 ovarian = tested on: OVCAR-5 ovarian
M14 melanoma = tested on: M14 melanoma
IGROV1 ovarian = tested on: IGROV1 ovarian
HCT-116 colon = tested on: HCT-116 colon
BT-549 breast = tested on: BT-549 breast
MALME-3M melanoma = tested on: MALME-3M melanoma
HT29 colon = tested on: HT29 colon
HOP-62 NSCLC = tested on: HOP-62 NSCLC
T-47D breast = tested on: T-47D breast
NCI/ADR-RES ovarian = tested on: NCI/ADR-RES ovarian
HCC-2998 colon = tested on: HCC-2998 colon
CAKI-1 renal = tested on: CAKI-1 renal
U251 CNS = tested on: U251 CNS
RXF 393 renal = tested on: RXF 393 renal
NCI-H23 lung = tested on: NCI-H23 lung
UACC-62 melanoma = tested on: UACC-62 melanoma
HCT-15 colon = tested on: HCT-15 colon
SK-MEL-2 melanoma = tested on: SK-MEL-2 melanoma
OVCAR-8 ovarian = tested on: OVCAR-8 ovarian
MDA-MB-231 breast = tested on: MDA-MB-231 breast
LOX IMVI melanoma = tested on: LOX IMVI melanoma
KM12 colon = tested on: KM12 colon
OVCAR-3 ovarian = tested on: OVCAR-3 ovarian
HL-60(TB) leukemia = tested on: HL-60(TB) leukemia
786-0 renal = tested on: 786-0 renal

## CN(C)c1nc(NCCNS(=O)(=O)c2ccc(C(=O)/C=C/c3ccc(Cl)cc3)cc2)nc(Nc2ccc(F)cc2)n1
UO-31 renal
  GI50: 4 µM
  TGI: 16.6 µM
SF-539 CNS
  GI50: 10.1 µM
  TGI: 22 µM
TK-10 renal
  GI50: 11.7 µM
  TGI: 30.3 µM
SF-268 CNS
  GI50: 6.21 µM
  TGI: 23.5 µM
OVCAR-5 ovarian
  GI50: 10.7 µM
  TGI: 22.6 µM
M14 melanoma
  GI50: 4.14 µM
  TGI: 15.3 µM
IGROV1 ovarian
  GI50: 8.58 µM
  TGI: 21.4 µM
HCT-116 colon
  GI50: 1.66 µM
  TGI: 3.11 µM
BT-549 breast
  GI50: 11.6 µM
  TGI: 23.9 µM
MALME-3M melanoma
  GI50: 12.8 µM
  TGI: 26.4 µM
HT29 colon
  GI50: 2.15 µM
  TGI: 5.72 µM
HOP-62 NSCLC
  GI50: 12.5 µM
  TGI: 27.5 µM
T-47D breast
  GI50: 4.37 µM
  TGI: 18 µM
NCI/ADR-RES ovarian
  GI50: 5.49 µM
  TGI: 18.4 µM
HCC-2998 colon
  GI50: 2.48 µM
  TGI: 6.9 µM
CAKI-1 renal
  GI50: 4.93 µM
  TGI: 19.5 µM
U251 CNS
  GI50: 5.25 µM
  TGI: 18.6 µM
RXF 393 renal
  GI50: 3.09 µM
  TGI: 15.1 µM
NCI-H23 lung
  GI50: 10.7 µM
  TGI: 23.4 µM
UACC-62 melanoma
  GI50: 5.41 µM
  TGI: 18.7 µM
HCT-15 colon
  GI50: 4.62 µM
  TGI: 16.9 µM
SK-MEL-2 melanoma
  GI50: 5.47 µM
  TGI: 19.5 µM
OVCAR-8 ovarian
  GI50: 10.2 µM
  TGI: 23.7 µM
MDA-MB-231 breast
  GI50: 4.72 µM
  TGI: 17.4 µM
LOX IMVI melanoma
  GI50: 2.74 µM
  TGI: 9.16 µM
KM12 colon
  GI50: 2.97 µM
  TGI: 9.11 µM
OVCAR-3 ovarian
  GI50: 3.16 µM
  TGI: 11.9 µM
HL-60(TB) leukemia
  GI50: 4.39 µM
  TGI: > 100 µM
786-0 renal
  GI50: 7.28 µM
  TGI: 20.2 µM
